The text below walks through data of patent US6914077B2, “Mite repellant and/or miticide composition” (Kao Corporation, priority 2001, dated 2005).

Read-outs that look alike come from different tables or passages of the source.

Holding throughout (assay type): in vivo
Test [1] concerns Dermatophagoides farinae Hughes. Kind of test: Mite repellent effect test (impregnated black paper). To be noted: mites counted after 15 minutes, vs acetone control. How it is done:
The repellent effects of compounds shown in Table 1 were evaluated in accordance with the following method. 1. Mite (or mites) under test: Dermatophagoides farinae Hughes. 2. Testing method: Each test compound was diluted with acetone, black paper 2.5 cm square was impregnated with the diluted test compound in such a manner that the test compound is impregnated in a proportion of 100 μg or 1,000 μg per cm^2 and the black paper was air-dried under room temperature for 2 hours. Black paper treated with acetone alone was also provided as a control group. Mites grown at high density were transferred together with a medium to a glass batt (15×20 cm), and a sheet of gauze cut out in the same size was placed thereon. This medium was placed in a plastic closed container controlled at relative humidity of at least 85% with saturated brine and incubated at 25° C. Three sheets of the black paper treated with the test compound were arranged side by side at intervals of at least 5 mm on the gauze to count the number of the mites climbed up the front and back surfaces of the black paper after 15 minutes. This process was repeated 3 times to find an average value, and it was compared with the control group to calculate out a repelling rate in accordance with the following equation. Repelling rate={(A−B)/A}×100(%) wherein A is the number of mites climbed up in the control group, and B is the number of mites climbed up in the treated group.

Test [2] has the same test system. Kind of test: Mite growth inhibition test in treated medium. To be noted: for inhibition at 0.045 % strength: 0.045 % by weight in medium; for inhibition at 0.12 % strength: 0.12 % by weight in medium; for inhibition at 0.23 % strength: 0.23 % by weight in medium; for inhibition at 0.34 % strength: 0.34 % by weight in medium. How it is done:
The inhibitory effect of methyl dihydrojasmonate on the growth of mites was evaluated in accordance with the following method. • 1. Mite (or Mites) under test: Dermatophagoides farinae Hughes. • 2. Testing method:
After a predetermined amount of methyl dihydrojasmonate diluted with ethanol was added to mite-free sterilized medium (10 g; MF powder feed; Oriental Yeast Co., Ltd.), and both were mixed, the mixture was air-dried at room temperature for at least 3 hours to provide a treated group. A medium mixed with ethanol was provided as a control group. Mites sufficiently grown with the same medium as described above in advance were fully mixed with the medium, and this mixture (1 g) was mixed into the test medium containing methyl dihydrojasmonate and control medium, respectively. After fully stirred, the mites were raised at 25° C. for 22 days. A sample (0.1 g) was taken out of each medium to count the number of active mites through a microscope, thereby calculating out a mite growth-inhibiting rate. Incidentally, the test was repeated 3 times to conduct the evaluation in terms of the average value thereof. Mite growth-inhibiting rate={(T−S)/T}×100 (%) wherein T is the number of viable mites in the control group, and S in the number of viable mites in the treated group.

Test [3] shares this test system. Description: Miticidal effect test (impregnated folded filter paper). To be noted: 1,000 μg per cm^2 on filter paper, 25° C. How it is done:
The miticidal effects of compounds shown in Table 2 were evaluated in accordance with the following method. • 1. Mite or Mites under test: Dermatophagoides farinae Hughes. • 2. Testing method:
Each test compound was diluted with acetone, filter paper 5×10 cm in size was impregnated with the diluted test compound in such a manner that the test compound is impregnated in a proportion of 1,000 μg per cm^2, and the filter paper was air-dried at room temperature for 2 hours. Filter paper treated with acetone alone was also provided as a control group. Each filter paper was folded in two, and 20 to 40 mites were freed therein to close the open portion with aclip in such a manner that the mites cannot escape. After the filter paper was incubated for 24 hours or 48 hours in an environment of 25° C. and relative humidity of at least 80%, the numbers of the living or dead mites are calculated through a stereoscopic microscope. This process was repeated 3 times to find an average lethality, and it was compared with the untreated group to calculate out a compensated lethality in accordance with the following equation. Compensated lethality={(Y−X)/(100−X)}×100 (%) wherein X is an average lethality in the control group, and Y is an average lethality in the treated group.

The mark [4] stands for this setting: concentration of compound 100 μg/cm^2 on black paper.
[5] abbreviates: concentration of compound 1,000 μg/cm^2 on black paper.
The mark [6] stands for this setting: 8th day, read-out: Growth-inhibiting rate on the 8th day.
The mark [7] stands for this setting: 22nd day, read-out: Growth-inhibiting rate on the 22nd day.

On to `C=CC(C)(O)CCC=C(C)C` (stereo not drawn) [Linalool, reference compound], for which the Repelling rate in test [1] (setting [4]) was 47%; in test [1] (setting [5]), 57%.
Turning to `CCCCCC1C(=O)CCC1CC(=O)OC` (stereo not drawn) [Methyl dihydrojasmonate], the Repelling rate was determined as 90% in test [1] (setting [4]) and 94% in test [1] (setting [5]). Besides, the inhibition at 0.045 % strength was found to be 75% in test [2] (setting [6]) and 54% in test [2] (setting [7]). Further, the inhibition at 0.12 % strength in test [2] (setting [6]) is 86%; in test [2] (setting [7]), 61%. Further, the inhibition at 0.23 % strength in test [2] (setting [6]) was 93%; in test [2] (setting [7]) it was 69%. For the same compound, the inhibition at 0.34 % strength in test [2] (setting [6]) came out at 92%; in test [2] (setting [7]) it was 80%. The Compensated lethality in test [3] (incubation time 24 hr) and in test [3] (incubation time 48 hr) was 100% in each case.
Take `C=C(C)C1CC=C(C)C(=O)C1` (stereo not drawn) [Carvone, reference compound]: the Repelling rate in test [1] (setting [4]) stood at 10%; in test [1] (setting [5]), 29%.
For `CCCCCC1=C(C)CCC1=O` [Dihydrojasmone] the same measures were 80% and 83%.
For `C/C(=C\CO)CCC[C@H](C)CCC[C@H](C)CCCC(C)C` [Phytol] the same measures were 52% and 72%.
In the case of `CC(C)=CCCC(C)=CCCC(C)=CCO` [Farnesol], the figures for the Repelling rate in test [1] (setting [4]) and in test [1] (setting [5]) were 94% and 96%, respectively. The Compensated lethality in test [3] (incubation time 24 hr) turned out to be 63%; in test [3] (incubation time 48 hr), 77%.
For the compound `C=CC(C)(O)CCC=C(C)CCC=C(C)C` (stereo not drawn) [Nerolidol], the Repelling rate in test [1] (setting [4]) came to 80%; in test [1] (setting [5]), 79%.
For `CC/C=C\CC1C(=O)CCC1CC(=O)OC` (stereo not drawn) [Methyl jasmonate] the same measures were 93% and 97%.
For `CC/C=C\CC1=C(C)CCC1=O` [cis-Jasmone] the same measures were 72% and 85%.
